Data: US6977264B2, “Substituted piperidines and methods of use” (Amgen Inc., priority 2001, dated 2005)
Structures can show the parent of a compound that is named as a salt.

melting point | SMILES
178 °C (dec.) | Cn1ccn(-c2ccccc2C2CCN(C(=O)[C@@H](Cc3ccc(Cl)cc3)NC(=O)[C@@H]3Cc4ccccc4CN3)CC2)c1=O (as salt: HCl) [Example 17, ((3S)(3-1,2,3,4-Tetrahydroisoquinolyl))-N-((1R)-1-[(4-chlorophenyl)methyl]-2-{4-[2-(3-methyl-2-oxo(4-imidazolinyl))phenyl]piperidyl}-2-oxoethyl)carboxamide]
181 °C (dec.) | CS(=O)(=O)Nc1ccccc1C1CCN(C(=O)[C@@H](Cc2ccc(Cl)c(Cl)c2)NC(=O)[C@@H]2Cc3ccccc3CN2)CC1 (as salt: HCl) [Example 10, ((3S)(3-1,2,3,4-Tetrahydroisoquinolyl))-N-[(1R)-1-[(3,4-dichlorophenyl)methyl]-2-(4-{2-[(methylsulfonyl)-amino]phenyl}piperidyl)-2-oxoethyl]carboxamide]
191 °C (dec.) | Cl.O=C(N[C@H](Cc1ccc(Cl)cc1)C(=O)N1CCC(c2ccccc2-n2cc[nH]c2=O)CC1)[C@@H]1Cc2ccccc2CN1
190 to 200 °C | CS(=O)(=O)N(CC1CC1)c1ccccc1C1CCN(C(=O)[C@@H](Cc2ccc(Cl)cc2)NC(=O)[C@@H]2Cc3ccccc3CN2)CC1 (as salt: HCl) (hydrate or solvate) [Example 11, N-[(1R)-1-[(4-Chlorophenyl)methyl]-2-(4-{2-[(cyclopropylmethyl)-(methylsulfonyl)amino]-phenyl}piperidyl)-2-oxoethyl]((3S)(3-1,2,3,4-tetrahydroisoquinolyl))carboxamide]
